Values after ≈ are worked out from the molar mass of the structure shown. Like-named read-outs stand apart in the source and are kept apart here.
How the values were obtained:
Assay type in all cases: cell-based
Botrtyis cinerea (Bc) = assay: In vitro pathogen growth inhibition assay, Bc; conditions: 48 h
Experimental: (§1) A growth inhibition assay was conducted to determine the ability of compounds to control the growth of fungal pathogens, such as Botrtyis cinerea (Bc), Collectotrichum graminicola (Cg), Diplodia maydis (Dm), Fusarium moniliforme (Fm), Fusarium virguliforme (Fv), Phytophthora capsici (Pc), Rhizoctonia solani (Rs), and Septoria tritici (St). The compounds listed in Table 1 were each dissolved in DMSO at 2.5 mg/ml to produce compound stock solutions (“stocks”). […] Negative controls on each plate included 2% DMSO, water, and a blank (media+2% DMSO). Fungal spores were isolated from previously sub-cultured plates of Botrtyis cinerea (Bc), Collectotrichum graminicola (Cg), Diplodia maydis (Dm), Fusarium moniliforme (Fm), Fusarium virguliforme (Fv), Phytophthora capsici (Pc), and Septoria tritici (St). The isolated spores were diluted to individual concentrations with a 17% V8 liquid media. For Rhizoctonia solani (Rs), 1.5 mm mycelial plugs were used in place of spores and ¼ Potato Dextrose Broth (PDB) was used for dilution. The spore concentrations and plug sizes were based on growth curves generated at 48 hours for each pathogen. In a second 96-well plate, the spores or mycelial plugs, media, diluted compound solutions, and controls were combined. Once the compound was added, a true final concentration of compound in each well was measured by an OD600 reading, which adjusted for any compound precipitation that might have occurred in the well. Plate readings were repeated at both 24 and 48 hours. The blank negative control was used as a background subtraction. Additional visual ratings were performed at both 24 and 48 hours for checking on precipitation and confirming efficacy. […] Both tables list the concentration of each compound that was sufficient to ≥90% inhibition of growth for each of the fungal pathogens listed above. In addition, some of compounds were tested in a yeast growth inhibition assay for Saccharomyces cerevisiae (Sc). Table 2 lists the concentration of the tested compound that was sufficient to ≥75% inhibition of Saccharomyces cerevisiae (Sc).

[1] = test system: Collectotrichum graminicola (Cg); assay: In vitro pathogen growth inhibition assay, Cg; conditions: 48 h
Experimental: as §1

Diplodia maydis (Dm) = assay: In vitro pathogen growth inhibition assay, Dm; conditions: Stenocarpella maydis, 48 h
Experimental: as §1

[2] = test system: Fusarium moniliforme (Fm); assay: In vitro pathogen growth inhibition assay, Fm; conditions: Fusarium verticillioides
Experimental: as §1

[3] = test system: Fusarium virguliforme (Fv); assay: In vitro pathogen growth inhibition assay, Fv
Experimental: as §1

[4] = test system: Phytophthora capsici (Pc); assay: In vitro pathogen growth inhibition assay, Pc; conditions: 48 h
Experimental: as §1

Rhizoctonia solani (Rs) = assay: In vitro pathogen growth inhibition assay, Rs (mycelial plugs); conditions: Rhizoctonia solani, 48 h
Experimental: as §1

Septoria tritici (St) = assay: In vitro pathogen growth inhibition assay, St; conditions: Zymoseptoria tritici, 48 h
Experimental: as §1

[5] = ≥90% inhibition, 48 hours vs 2% DMSO control, read-out: Compound Concentration (ppm) sufficient for ≥90% inhibition of growth, Bc
[6] = ≥90% inhibition, 48 hours vs 2% DMSO control, read-out: Compound Concentration (ppm) sufficient for ≥90% inhibition of growth, Cg
[7] = ≥90% inhibition, 48 hours vs 2% DMSO control, read-out: Compound Concentration (ppm) sufficient for ≥90% inhibition of growth, Dm
[8] = ≥90% inhibition, 48 hours vs 2% DMSO control, read-out: Compound Concentration (ppm) sufficient for ≥90% inhibition of growth, Fm
[9] = ≥90% inhibition, 48 hours vs 2% DMSO control, read-out: Compound Concentration (ppm) sufficient for ≥90% inhibition of growth, Fv
[10] = ≥90% inhibition, 48 hours vs 2% DMSO control, read-out: Compound Concentration (ppm) sufficient for ≥90% inhibition of growth, Pc
[11] = ≥90% inhibition, mycelial plugs, 48 hours vs 2% DMSO control, read-out: Compound Concentration (ppm) sufficient for ≥90% inhibition of growth, Rs
[12] = ≥90% inhibition, 48 hours vs 2% DMSO control, read-out: Compound Concentration (ppm) sufficient for ≥90% inhibition of growth, St
[13] = ≥90% growth inhibition, 48 hours, vs 2% DMSO control, read-out: Compound Concentration (ppm) sufficient for ≥90% inhibition of Bc
[14] = ≥90% growth inhibition, 48 hours, vs 2% DMSO control, read-out: Compound Concentration (ppm) sufficient for ≥90% inhibition of Cg
[15] = ≥90% growth inhibition, 48 hours, vs 2% DMSO control, read-out: Compound Concentration (ppm) sufficient for ≥90% inhibition of Dm
[16] = ≥90% growth inhibition, 48 hours, vs 2% DMSO control, read-out: Compound Concentration (ppm) sufficient for ≥90% inhibition of Fm
[17] = ≥90% growth inhibition, 48 hours, vs 2% DMSO control, read-out: Compound Concentration (ppm) sufficient for ≥90% inhibition of Fv
[18] = ≥90% growth inhibition, 48 hours, vs 2% DMSO control, read-out: Compound Concentration (ppm) sufficient for ≥90% inhibition of Pc
[19] = ≥90% growth inhibition, mycelial plugs, 48 hours, vs 2% DMSO control, read-out: Compound Concentration (ppm) sufficient for ≥90% inhibition of Rs
[20] = ≥90% growth inhibition, 48 hours, vs 2% DMSO control, read-out: Compound Concentration (ppm) sufficient for ≥90% inhibition of St

| Structure (SMILES) | IC90 (Botrtyis cinerea (Bc); [5]) | IC90 [1, 6] | IC90 (Diplodia maydis (Dm); [7]) | IC90 [2, 8] | IC90 [3, 9] | IC90 [4, 10] | IC90 (Rhizoctonia solani (Rs); [11]) | IC90 (Septoria tritici (St); [12]) | other results |
| --- | --- | --- | --- | --- | --- | --- | --- | --- | --- |
| COCCOc1ccc(F)cc1[C@H](Cn1c(=O)n(C(C)(C)C(=O)NC(C)C)c(=O)c2c(C)c(-n3nccn3)sc21)OC(C)C [Compound I-068] | 0.4 µg/mL (≈ 0.634 µM) | 0.4 µg/mL (≈ 0.634 µM) | ≥ 0.08 µg/mL | 0.08 µg/mL (≈ 0.127 µM) | 0.4 µg/mL (≈ 0.634 µM) | > 50 µg/mL | 0.4 µg/mL (≈ 0.634 µM) | ≥ 50 µg/mL |  |
| Cc1c(-n2nccn2)sc2c1c(=O)n(C(C)(C)C(=O)NC(C)C)c(=O)n2C[C@H](OC(C)C)c1cc(F)ccc1OCC1COC1 [Compound I-069] | 0.4 µg/mL (≈ 0.622 µM) | 0.4 µg/mL (≈ 0.622 µM) | 0.4 µg/mL (≈ 0.622 µM) | 0.08 µg/mL (≈ 0.124 µM) | 0.4 µg/mL (≈ 0.622 µM) | > 50 µg/mL | ≥ 0.4 µg/mL | ≥ 50 µg/mL |  |
| COc1ccc(F)cc1[C@H](Cn1c(=O)n(CC(=O)N2CCCC2)c(=O)c2c(C)c(-n3cccn3)sc21)OC(C)C [Compound I-128] | 2 µg/mL (≈ 3.51 µM) | 10 µg/mL (≈ 17.6 µM) | > 10 µg/mL | 0.4 µg/mL (≈ 0.702 µM) | 2 µg/mL (≈ 3.51 µM) | > 50 µg/mL | ≥ 2 µg/mL | > 50 µg/mL |  |
| COCCCO[C@@H](Cn1c(=O)n(C(C)(C)C(=O)N2CCCC2)c(=O)c2c(C)c(-n3nccn3)sc21)c1cc(F)ccc1OC [Compound I-083] | 2 µg/mL (≈ 3.18 µM) | 2 µg/mL (≈ 3.18 µM) | 2 µg/mL (≈ 3.18 µM) | 0.08 µg/mL (≈ 0.127 µM) | 0.4 µg/mL (≈ 0.636 µM) | > 50 µg/mL | 0.4 µg/mL (≈ 0.636 µM) | ≥ 50 µg/mL |  |
| COc1ccc(F)cc1[C@@H](O)Cn1c(=O)n([C@@H](C)C(=O)N2CCCC2)c(=O)c2c(C)c(-n3nccn3)sc21 [Compound I-218] |  |  |  |  |  |  |  |  | IC90 (Botrtyis cinerea (Bc); [13]): 10 µg/mL (≈ 18.4 µM); IC90 [1, 14]: 10 µg/mL (≈ 18.4 µM); IC90 (Diplodia maydis (Dm); [15]): 50 µg/mL (≈ 92.2 µM); IC90 [2, 16]: 2 µg/mL (≈ 3.69 µM); IC90 [3, 17]: 2 µg/mL (≈ 3.69 µM); IC90 [4, 18]: ≥ 50 µg/mL; IC90 (Rhizoctonia solani (Rs); [19]): 2 µg/mL (≈ 3.69 µM); IC90 (Septoria tritici (St); [20]): > 50 µg/mL |
| COc1ccccc1[C@H](Cn1c(=O)n([C@H](C)C(=O)N(C)C(C)C)c(=O)c2c(C)c(-n3cccn3)sc21)OCCC#N [Compound I-242] |  |  |  |  |  |  |  |  | IC90 (Botrtyis cinerea (Bc); [13]): 2 µg/mL (≈ 3.46 µM); IC90 [1, 14]: 2 µg/mL (≈ 3.46 µM); IC90 (Diplodia maydis (Dm); [15]): 2 µg/mL (≈ 3.46 µM); IC90 [2, 16]: 0.4 µg/mL (≈ 0.691 µM); IC90 [3, 17]: 2 µg/mL (≈ 3.46 µM); IC90 [4, 18]: > 50 µg/mL; IC90 (Rhizoctonia solani (Rs); [19]): 2 µg/mL (≈ 3.46 µM); IC90 (Septoria tritici (St); [20]): ≥ 50 µg/mL |
| COc1ccc(F)cc1[C@H](Cn1c(=O)n(C(C)(C)C(=O)NC(C)C)c(=O)c2c(C)c(-n3nccn3)sc21)OCC(C)(C)O [Compound I-072] | 2 µg/mL (≈ 3.24 µM) | ≥ 0.08 µg/mL | 0.4 µg/mL (≈ 0.649 µM) | 0.08 µg/mL (≈ 0.13 µM) | 0.4 µg/mL (≈ 0.649 µM) | 10 µg/mL (≈ 16.2 µM) | ≥ 0.4 µg/mL | ≥ 2 µg/mL |  |
| CCOC(=O)c1sc2c(c1C)c(=O)n([C@H](C)C(N)=O)c(=O)n2C[C@H](OCCC#N)c1cc(F)ccc1OC [Compound I-228] |  |  |  |  |  |  |  |  | IC90 (Botrtyis cinerea (Bc); concentration sufficient to ≥90% inhibition of growth, 48 hours vs 2% DMSO control, read-out: Compound Concentration (ppm) for ≥90% inhibition, Bc): 10 µg/mL (≈ 18.3 µM); IC90 ([1]; concentration sufficient to ≥90% inhibition of growth, 48 hours vs 2% DMSO control, read-out: Compound Concentration (ppm) for ≥90% inhibition, Cg): > 50 µg/mL; IC90 (Diplodia maydis (Dm); concentration sufficient to ≥90% inhibition of growth, 48 hours vs 2% DMSO control, read-out: Compound Concentration (ppm) for ≥90% inhibition, Dm): > 50 µg/mL; IC90 ([2]; concentration sufficient to ≥90% inhibition of growth, 48 hours vs 2% DMSO control, read-out: Compound Concentration (ppm) for ≥90% inhibition, Fm): 10 µg/mL (≈ 18.3 µM); IC90 ([3]; concentration sufficient to ≥90% inhibition of growth, 48 hours vs 2% DMSO control, read-out: Compound Concentration (ppm) for ≥90% inhibition, Fv): > 50 µg/mL; IC90 ([4]; concentration sufficient to ≥90% inhibition of growth, 48 hours vs 2% DMSO control, read-out: Compound Concentration (ppm) for ≥90% inhibition, Pc): > 50 µg/mL; IC90 (Rhizoctonia solani (Rs); concentration sufficient to ≥90% inhibition of growth, 48 hours vs 2% DMSO control, read-out: Compound Concentration (ppm) for ≥90% inhibition, Rs): 2 µg/mL (≈ 3.66 µM); IC90 (Septoria tritici (St); concentration sufficient to ≥90% inhibition of growth, 48 hours vs 2% DMSO control, read-out: Compound Concentration (ppm) for ≥90% inhibition, St): > 50 µg/mL |
